Changes are numbered by the printed parent chain. Where “and” joins values, the source holds several entries; their conditions need not be identical. Equal values may be shown once.
What was measured:
Assay in all cases: Background current before and after MTSET treatment in Tmc1-knockout OHCs expressing cysteine-substituted TMC1
[1] = tested on: cysteine-substituted TMC1 constructs; type: cell-based, mouse; conditions: OHCs expressing any of the six cysteine-substituted TMC1 constructs
Procedure: (§1) Mouse Tmc1 and Tmc2 cDNAs were cloned into CMV-Script and pCDNA3.1- vectors, respectively. To obtain the Tmc1-deafness vector and amino-acid-substituted Tmc1 constructs, specific primers were designed and used for PCR (Supplementary File 1). […] In brief, the organ of Corti was isolated from P3 mice and cut into three pieces in Dulbecco’s modified Eagle’s medium/F12 with 1.5 μg/ml ampicillin. For electroporation, a glass pipette (2 μm tip diameter) was used to deliver cDNA plasmids (0.2 μg/μl in 1 × Hanks' balanced salt solution) to hair cells in the sensory epithelium. EGFP was used as an indicator for the selection of transfected hair cells. A series of three pulses at 60 V lasting 15 ms at 1 s intervals was applied to cochlear tissues by an electroporator (ECM Gemini X2, BTX, CA). The cochlear tissues were cultured for 1 day in vitro and then used for electrophysiological recording.
(§2) All experiments were performed at room temperature (20–25°C). Briefly, the basilar membrane with hair cells was acutely dissected from neonatal mice. […] The acutely isolated or cultured basilar membrane was used for electrophysiological recording within 1 h. […] Hair cells were recorded with a patch-clamp amplifier (EPC 10 USB and Patchmaster software, HEKA Elektronik, Lambrecht/Pfalz, Germany).
(§3) The sampling rate was 1 kHz for leak current recording, 50 kHz for the IV protocol and current-clamp recording, and 100 kHz for unitary channel recording. The voltage-clamp used a –70 mV holding potential, and the current-clamp was held at 0 pA. Only recordings with a current baseline <20 pA in NMDG solution were used for statistical analysis.

[2] = target: T1, cysteine-substituted TMC1 constructs (Mus musculus, UniProt Q8R4P5, D528C); type: cell-based; conditions: Tmc1-knockout OHCs expressing TMC1-D528C, individual cells
T1 construct: control full-length TMC1 (TMC1_WT); expressed in transfected cells; host or cells: Tmc1-knockout mouse OHCs, injectoporation
T1 sequence (Q8R4P5 1-757 D528C): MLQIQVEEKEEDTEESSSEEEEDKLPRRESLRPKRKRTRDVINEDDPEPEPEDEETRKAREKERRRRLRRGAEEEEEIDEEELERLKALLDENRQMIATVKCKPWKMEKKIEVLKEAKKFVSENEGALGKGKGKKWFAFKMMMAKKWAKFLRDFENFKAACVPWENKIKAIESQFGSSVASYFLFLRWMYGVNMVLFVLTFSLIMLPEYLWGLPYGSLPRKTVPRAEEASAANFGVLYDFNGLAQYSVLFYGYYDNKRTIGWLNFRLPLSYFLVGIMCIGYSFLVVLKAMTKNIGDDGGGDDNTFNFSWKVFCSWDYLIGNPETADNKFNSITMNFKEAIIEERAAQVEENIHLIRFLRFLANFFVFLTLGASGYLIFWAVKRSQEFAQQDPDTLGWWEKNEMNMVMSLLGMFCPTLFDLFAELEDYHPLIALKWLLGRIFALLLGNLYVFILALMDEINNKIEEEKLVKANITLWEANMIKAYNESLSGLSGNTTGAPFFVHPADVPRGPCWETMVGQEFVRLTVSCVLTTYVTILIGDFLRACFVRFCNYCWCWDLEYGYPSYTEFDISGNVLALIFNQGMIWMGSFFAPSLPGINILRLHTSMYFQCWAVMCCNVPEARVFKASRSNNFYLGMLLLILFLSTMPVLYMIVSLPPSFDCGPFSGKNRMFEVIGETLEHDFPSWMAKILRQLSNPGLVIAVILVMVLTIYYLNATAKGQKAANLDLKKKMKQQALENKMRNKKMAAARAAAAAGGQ
Procedure: as §1, §2, §3

[3] = target: T2, cysteine-substituted TMC1 constructs (Mus musculus, UniProt Q8R4P5, D569C); type: cell-based; conditions: Tmc1-knockout OHCs expressing TMC1-D569C, individual cells
T2 construct: control full-length TMC1 (TMC1_WT); expressed in transfected cells; host or cells: Tmc1-knockout mouse OHCs, injectoporation
T2 sequence (Q8R4P5 1-757 D569C): T1 sequence (Q8R4P5 1-757 D528C) with C528D, D569C
Procedure: as §1, §2, §3

SMILES: C[N+](C)(C)CCSS(C)(=O)=O.[Br-] [MTSET, 2-(trimethylammonium)ethyl methanethiosulfonate, bromide]
- effect on the current baseline [1]: did not, however, change the current baseline
- amplitude of the background current after MTSET treatment [2]: -23.6585 and -22.824 and -11.63 and -11.1296
- amplitude of the background current after MTSET treatment [3]: -25.3123 and -14.3715 and -14.7309 and -35.792
